The record followed here is patent US20260308186A1, “STAT DEGRADERS AND USES THEREOF” (Recludix Pharma, Inc., priority 2023, published 2026).

SMILES strings stand for the structures. Where two headings read alike, the source gives them in different places.

The target in one experiment is T1, STAT3 (Homo sapiens, UniProt P40763).
T1 construct: Recombinant STAT3 protein (STAT3(G127-1722))
The experiment can be described thus: STAT3 Fluorescence Polarization (FP) Assay. The format is binding. In general terms: Fluorescence polarisation rises when a labelled molecule tumbles more slowly, as on binding a larger partner.

In a further experiment the target is T2, STAT6 (Homo sapiens, UniProt P42226).
T2 construct: Recombinant STAT6 protein (STAT6(W123-T658))
T2 sequence (P42226 123-658): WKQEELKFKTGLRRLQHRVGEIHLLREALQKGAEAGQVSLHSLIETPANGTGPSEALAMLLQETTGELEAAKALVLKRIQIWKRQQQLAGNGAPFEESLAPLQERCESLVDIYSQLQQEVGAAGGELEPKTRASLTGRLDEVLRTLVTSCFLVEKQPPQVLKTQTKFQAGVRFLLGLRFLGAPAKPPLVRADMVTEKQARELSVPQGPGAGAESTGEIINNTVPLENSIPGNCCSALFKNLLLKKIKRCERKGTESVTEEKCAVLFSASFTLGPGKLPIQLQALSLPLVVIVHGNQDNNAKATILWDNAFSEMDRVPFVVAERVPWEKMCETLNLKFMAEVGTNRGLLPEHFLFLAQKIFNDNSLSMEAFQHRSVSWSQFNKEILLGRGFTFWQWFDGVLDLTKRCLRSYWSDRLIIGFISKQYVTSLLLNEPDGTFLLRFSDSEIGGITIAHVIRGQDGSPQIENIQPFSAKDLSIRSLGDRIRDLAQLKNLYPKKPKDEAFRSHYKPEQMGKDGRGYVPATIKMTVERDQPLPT
The experiment can be described thus: STAT6 Fluorescence Polarization (FP) Assay. The format is binding. Put shortly:
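STAT6(W123-T658) at 250 nM plus 2 nM 5-FAM phosphotyrosine peptide probe in HEPES pH 7.4 buffer with 2 mM DTT, 1% DMSO final. Polarization read after 45 min at room temperature. IC50 from nonlinear regression of mP against log concentration.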

The target in another experiment is T3, pSTAT3 (Homo sapiens, UniProt P40763).
T3 construct: pY705-STAT3 MSD read-out
Kind of experiment: MSD-pSTAT-PBMC Assay, pSTAT3 (IL-6 stimulated PBMC). The format is cell-based. An excerpt:
Cryopreserved Peripheral Blood Mononuclear Cells (PBMC) are from AllCells. Recombinant Human IL-4 and IL-6 are from Peprotech. Mouse monoclonal anti-STAT3 antibody, rabbit monoclonal anti-pY705-STAT3 antibody, rabbit monoclonal Anti-pY641-STAT6 antibody, and lysis buffer are from Cell Signaling Technology (CST). Mouse monoclonal anti-STAT6 antibody is from BioLegend. Assay plates, blocker, and anti-rabbit secondary antibody are from Meso Scale Discovery (MSD).
Cryopreserved PBMCs were thawed out and allowed to recover overnight in IMDM+10% heat-inactivated FBS prior to plating 50,000 (STAT3) or 25,000 (STAT6) cells per well in 96-well U-bottom tissue culture plates. Cells were treated with compound for 3 hrs. then stimulated with 10 ng/mL IL-6 (STAT3) or 1 ng/mL IL-4 (STAT6) for 10 min. Cells were then spun down and washed with ice-cold PBS prior to lysing the cell pellet with 1× lysis buffer (CST) with 1×HALT protease and phosphatase inhibitor cocktail (Thermo). Lysates were transferred to and incubated overnight at 4° C. with shaking in QuickPlex 96-well high bind assay plates (MSD) pre-coated overnight with 30 μL per well of 0.6 μg/mL mouse monoclonal anti-STAT3 antibody (STAT3) or 2 μg/mL mouse monoclonal anti-STAT6 antibody (STAT6) in 1×PBS, and pre-blocked for 1 hour with 3% Blocker-A (MSD). Captured protein in the assay plates were then washed and probed with 25 μL per well of 0.25 μg/ml rabbit monoclonal anti-pY705-STAT3 antibody (STAT3) or 0.18 μg/ml rabbit monoclonal Anti-pY641-STAT6 antibody (STAT6) in 1% Blocker-A for 1 hour at room temperature with shaking, then washed and probed with 25 ul per well of 1 ug/ml Sulfo-TAG Labeled Goat Anti-Rabbit Antibody (MSD) in 1% Blocker-A for 1 hour at room temperature with shaking. Assay plates were then washed and 150 μL of 1× Read Buffer-T (MSD) was added to each well prior to reading on an SQ120 MSD Plate Reader. Assay signal from each sample was subtracted by the signal from unstimulated control wells and normalized to DMSO control wells. IC50 values were calculated using Graph Pad Prism Dose-Response Nonlinear Regression with variable slope. For both pSTAT3 and pSTAT6 A=≤100 nM; B=>100-1000 nM; C=>1000-3000 nM; and D=>3 μM.

A further experiment deals with T4, pSTAT6 (Homo sapiens, UniProt P42226).
T4 construct: pY641-STAT6 MSD read-out
T4 sequence (P42226 1-847): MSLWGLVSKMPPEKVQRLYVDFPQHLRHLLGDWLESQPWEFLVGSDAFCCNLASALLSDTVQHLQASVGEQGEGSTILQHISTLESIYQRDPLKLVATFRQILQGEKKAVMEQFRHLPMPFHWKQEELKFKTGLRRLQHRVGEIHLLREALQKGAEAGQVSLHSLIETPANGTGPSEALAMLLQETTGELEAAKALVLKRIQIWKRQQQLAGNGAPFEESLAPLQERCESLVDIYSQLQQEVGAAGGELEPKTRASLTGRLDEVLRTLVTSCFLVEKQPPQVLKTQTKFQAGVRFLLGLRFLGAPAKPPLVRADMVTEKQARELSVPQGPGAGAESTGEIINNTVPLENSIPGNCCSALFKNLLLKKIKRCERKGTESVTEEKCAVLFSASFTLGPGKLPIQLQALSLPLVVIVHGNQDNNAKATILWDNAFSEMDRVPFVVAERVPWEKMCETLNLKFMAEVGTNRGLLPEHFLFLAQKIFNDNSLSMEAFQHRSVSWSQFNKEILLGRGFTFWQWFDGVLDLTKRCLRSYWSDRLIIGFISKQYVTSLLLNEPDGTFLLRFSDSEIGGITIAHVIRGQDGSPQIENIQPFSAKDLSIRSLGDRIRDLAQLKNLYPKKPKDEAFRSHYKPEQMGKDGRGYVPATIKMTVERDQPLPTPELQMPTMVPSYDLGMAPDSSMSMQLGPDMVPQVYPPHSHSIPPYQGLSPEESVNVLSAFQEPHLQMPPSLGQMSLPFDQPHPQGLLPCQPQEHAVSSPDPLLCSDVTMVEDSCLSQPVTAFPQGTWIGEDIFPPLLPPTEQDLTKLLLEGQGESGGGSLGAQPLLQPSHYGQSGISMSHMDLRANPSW
Kind of experiment: MSD-pSTAT-PBMC Assay, pSTAT6 (IL-4 stimulated PBMC). The experiment is classed as cell-based. Put shortly: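 Human PBMC were recovered overnight, treated 3 h with compound, then stimulated for 10 min with 10 ng/mL IL-6 (pSTAT3) or 1 ng/mL IL-4 (pSTAT6). Lysates were read by MSD sandwich immunoassay, with total STAT capture and pY705-STAT3 or pY641-STAT6 detection. Signal minus unstimulated wells was normalized to DMSO, and IC50 came from a variable-slope fit.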

The mark [1] stands for this setting: read-out: pSTAT3 IC50, compound 3 hrs, then 10 ng/mL IL-6 for 10 min, pY705-STAT3.
Setting [2] is: read-out: pSTAT6 IC50, compound 3 hrs, then 1 ng/mL IL-4 for 10 min, pY641-STAT6.
The mark [3] stands for this setting: recombinant STAT3 25 nM, probe 5-FAM-GpYLPQTV-NH2 2 nM, 45 min, room temperature, read-out: STAT3 FP IC50.
Setting [4] is: recombinant STAT6(W123-T658) 250 nM, probe 5-FAM-Ap[…]-NH2 2 nM, 45 min, room temperature, read-out: STAT6 FP IC50.
[5] abbreviates: compound 3 hrs, then 10 ng/mL IL-6 for 10 min, pY705-STAT3, read-out: pSTAT3 IC50.
The mark [6] stands for this setting: compound 3 hrs, then 1 ng/mL IL-4 for 10 min, pY641-STAT6, read-out: pSTAT6 IC50.

T1 sequence (P40763 127-722 limits assumed): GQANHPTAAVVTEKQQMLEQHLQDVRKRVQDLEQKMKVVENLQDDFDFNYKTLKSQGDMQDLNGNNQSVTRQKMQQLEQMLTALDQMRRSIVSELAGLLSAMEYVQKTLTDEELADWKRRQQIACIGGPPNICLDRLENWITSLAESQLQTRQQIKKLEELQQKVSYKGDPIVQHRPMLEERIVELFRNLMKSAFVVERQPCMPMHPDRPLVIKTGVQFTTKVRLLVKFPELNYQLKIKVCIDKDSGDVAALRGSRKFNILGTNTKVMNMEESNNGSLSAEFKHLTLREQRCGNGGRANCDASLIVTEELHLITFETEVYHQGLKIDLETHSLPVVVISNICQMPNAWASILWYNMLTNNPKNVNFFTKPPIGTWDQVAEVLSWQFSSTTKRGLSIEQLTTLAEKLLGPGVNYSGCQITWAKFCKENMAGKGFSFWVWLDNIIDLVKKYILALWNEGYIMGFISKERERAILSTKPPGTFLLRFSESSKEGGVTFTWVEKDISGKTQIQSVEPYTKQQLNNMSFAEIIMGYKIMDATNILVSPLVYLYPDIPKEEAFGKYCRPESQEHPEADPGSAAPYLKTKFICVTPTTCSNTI
T3 sequence (P40763 whole entry): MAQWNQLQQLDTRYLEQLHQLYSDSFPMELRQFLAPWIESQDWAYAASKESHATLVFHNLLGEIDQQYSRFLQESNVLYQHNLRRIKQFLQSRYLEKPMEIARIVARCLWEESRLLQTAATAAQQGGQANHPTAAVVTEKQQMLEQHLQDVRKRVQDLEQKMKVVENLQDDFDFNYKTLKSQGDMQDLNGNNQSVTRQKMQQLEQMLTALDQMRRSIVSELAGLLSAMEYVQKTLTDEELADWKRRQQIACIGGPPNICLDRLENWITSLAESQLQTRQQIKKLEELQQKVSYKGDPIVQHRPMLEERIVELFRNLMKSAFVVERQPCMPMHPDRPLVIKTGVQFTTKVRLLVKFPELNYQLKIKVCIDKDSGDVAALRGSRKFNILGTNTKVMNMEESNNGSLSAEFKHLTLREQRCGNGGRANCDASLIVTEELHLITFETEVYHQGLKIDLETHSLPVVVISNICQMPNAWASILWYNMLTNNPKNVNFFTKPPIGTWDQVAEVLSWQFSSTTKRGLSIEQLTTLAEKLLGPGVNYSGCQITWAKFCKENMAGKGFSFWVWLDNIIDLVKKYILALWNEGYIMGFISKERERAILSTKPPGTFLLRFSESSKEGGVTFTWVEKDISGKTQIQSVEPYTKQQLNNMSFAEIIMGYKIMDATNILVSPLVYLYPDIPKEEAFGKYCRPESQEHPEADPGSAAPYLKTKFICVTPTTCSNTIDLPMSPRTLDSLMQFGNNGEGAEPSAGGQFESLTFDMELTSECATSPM

`CN(C(=O)[C@@H]1CC[C@@H]2CCN(C(=O)CCCCCC#Cc3cccc4c3CN(C3CCC(=O)NC3=O)C4=O)C[C@H](NC(=O)c3cc4cc(C(F)(F)P(=O)(O)O)ccc4[nH]3)C(=O)N21)c1ccccc1` (stereo partly drawn) [Compound 1, [(2-{[(5S,8S,10aR)-3-{8-[2-(2,6-dioxopiperidin-3-yl)-1-oxo-2,3-dihydro-1H-isoindol-4-yl]oct-7-ynoyl}-8-[methyl(phenyl)carbamoyl]-6-oxo-decahydropyrrolo[1,2-a][1,5]diazocin-5-yl]carbamoyl}-1H-indol-5-yl)difluoromethyl]phosphonic acid]: the IC50 at STAT3 was 1 to 10 µM; against STAT6, 0.3 to 3 µM; on pSTAT3 (setting [1]), greater than 3 µM; at pSTAT6 (setting [2]) it was greater than 3 µM.
In the case of `CC(=O)N1CC[C@H]2CC[C@@H](C(=O)Nc3ccc(-c4ccc(NC(=O)CCCCCC#Cc5cccc6c5CN(C5CCC(=O)NC5=O)C6=O)cc4)cc3)N2C(=O)[C@@H](NC(=O)c2cc3cc(C(F)(F)P(=O)(O)O)ccc3[nH]2)C1` (stereo partly drawn) [Compound 3, ((2-(((5S,8S,10aR)-3-acetyl-8-((4′-(8-(2-(2,6-dioxopiperidin-3-yl)-1-oxoisoindolin-4-yl)oct-7-ynamido)-[1,1′-biphenyl]-4-yl)carbamoyl)-6-oxodecahydropyrrolo[1,2-a][1,5]diazocin-5-yl)carbamoyl)-1H-indol-5-yl)difluoromethyl)phosphonic acid], the IC50 against STAT3 was 0.1 to 1 µM; against STAT6, 0.3 to 3 µM; at pSTAT3 (setting [1]), greater than 3 µM; on pSTAT6 (setting [2]), greater than 3 µM.
As to `O=C1CCC(N2Cc3c(C#CCCCCCC(=O)N4CC[C@H]5CC[C@@H](C(=O)N6CC(c7cccnc7)C6)N5C(=O)[C@@H](NC(=O)c5cc6cc(C(F)(F)P(=O)(O)O)ccc6s5)C4)cccc3C2=O)C(=O)N1` (stereo partly drawn) [Compound 5, ((2-(((5S,8S,10aR)-3-(8-(2-(2,6-dioxopiperidin-3-yl)-1-oxoisoindolin-4-yl)oct-7-ynoyl)-6-oxo-8-(3-(pyridin-3-yl)azetidine-1-carbonyl)decahydropyrrolo[1,2-a][1,5]diazocin-5-yl)carbamoyl)benzo[b]thiophen-5-yl)difluoromethyl)phosphonic acid], the IC50 on STAT3 (setting [3]) is less than 0.1 µM; on STAT6 (setting [4]) it was 3 to 30 µM; at pSTAT3 (setting [5]), greater than 3 µM; at pSTAT6 (setting [6]), greater than 3 µM.
Turning to `N#CC1CN(C(=O)C2CCC3CCN(C(=O)CCCCCC#Cc4cccc5c4CN(C4CCC(=O)NC4=O)C5=O)CC(NC(=O)c4cc5cc(C(F)(F)P(=O)(O)O)ccc5s4)C(=O)N32)CC1c1ccccc1` [Compound 6, ((2-(((5S,8S,10aR)-8-((rel-3S,4R)-3-cyano-4-phenylpyrrolidine-1-carbonyl)-3-(8-(2-(2,6-dioxopiperidin-3-yl)-1-oxoisoindolin-4-yl)oct-7-ynoyl)-6-oxodecahydropyrrolo[1,2-a][1,5]diazocin-5-yl)carbamoyl)benzo[b]thiophen-5-yl)difluoromethyl)phosphonic acid], the IC50 was 1 to 10 µM at STAT3 (setting [3]), less than 0.3 µM on STAT6 (setting [4]), greater than 3 µM on pSTAT3 (setting [5]) and 1 to 3 µM on pSTAT6 (setting [6]).
Turning to `Cc1ccc2[nH]nc(C(=O)N3CC[C@H]4CC[C@@H](C(=O)NCCCCCCCCC(=O)N[C@H](C(=O)N5C[C@H](O)C[C@H]5C(=O)N[C@@H](C)c5ccc(-c6scnc6C)cc5)C(C)(C)C)N4C(=O)[C@@H](NC(=O)c4ccc5ccc(C(F)(F)P(=O)(O)O)cc5c4)C3)c2c1` [Compound 7], the IC50 at STAT3 is 1 to 10 µM; against STAT6 it was less than 0.3 µM; at pSTAT3 (setting [1]), greater than 3 µM; at pSTAT6 (setting [2]) it was greater than 3 µM.
As for `Cc1ccc2[nH]nc(C(=O)N3CC[C@H]4CC[C@@H](C(=O)NCCCCCCC#Cc5cccc6c5CN(C5CCC(=O)NC5=O)C6=O)N4C(=O)[C@@H](NC(=O)c4ccc5ccc(C(F)(F)P(=O)(O)O)cc5c4)C3)c2c1` (stereo partly drawn) [Compound 9, ((7-(((5S,8S,10aR)-8-((8-(2-(2,6-dioxopiperidin-3-yl)-1-oxoisoindolin-4-yl)oct-7-yn-1-yl)carbamoyl)-3-(5-methyl-1H-indazole-3-carbonyl)-6-oxodecahydropyrrolo[1,2-a][1,5]diazocin-5-yl)carbamoyl)naphthalen-2-yl)difluoromethyl)phosphonic acid], the IC50 against STAT3 was 1 to 10 µM; against STAT6, less than 0.3 µM; on pSTAT3 (setting [1]), greater than 3 µM; on pSTAT6 (setting [2]), 1 to 3 µM.
Consider `CN(C)c1ccncc1C1CN(C(=O)[C@@H]2CC[C@@H]3CCN(C(=O)CCCCCC#Cc4cccc5c4CN(C4CCC(=O)NC4=O)C5=O)C[C@H](NC(=O)c4cc5cc(C(F)(F)P(=O)(O)O)ccc5s4)C(=O)N32)C1` (stereo partly drawn) [Compound 39, ((2-(((5S,8S,10aR)-8-(3-(4-(dimethylamino)pyridin-3-yl)azetidine-1-carbonyl)-3-(8-(2-(2,6-dioxopiperidin-3-yl)-1-oxoisoindolin-4-yl)oct-7-ynoyl)-6-oxodecahydropyrrolo[1,2-a][1,5]diazocin-5-yl)carbamoyl)benzo[b]thiophen-5-yl)difluoromethyl)phosphonic acid], for which the IC50 at STAT3 (setting [3]) is less than 0.1 µM; at STAT6 (setting [4]), 3 to 30 µM; on pSTAT3 (setting [5]), 0.1 to 1 µM.
